Data reported in article PMC4335872, “Pharmacokinetic-Pharmacodynamic Analysis of Spiroindolone Analogs and KAE609 in a Murine Malaria Model” (Antimicrobial Agents and Chemotherapy, 2015).

Legend:
[1] = Mouse plasma protein binding, rapid equilibrium dialysis; assay type: in vitro ADME
Excerpt: (§1) page 5: Running title: PreclinicalPK -PD of antimalarials 73 to high through put form at using in- house standard assa y protocols that are described in the 74 literature. 75 (a)HT-Equilibrium solubilit y at pH 6.8( 1); (b)Parallel Artificial Membrane P ermeability Assa y 76 expressed in % fraction absorbed (FA) ( 2,3 ); (c)Apparent permeability from apical to […] 78 tested; (d)intrinsic clearance in mouse liver micro somes ex pressed as µ L/ min/mg protein, in 79 the presen ce of liver enzym es ( 6); (e)Mous e plasm a protein binding using rapid equilibrium […] 81 82 83 84 85 86 87 88 89 90 91 92 93 94 95 96 97 98 5

[2] = tested on: P. berghei GFP ANKA malaria strain PbGFPCON; assay: Dose-response efficacy in the P. berghei malaria mouse model; assay type: in vivo, female NMRI mice
Excerpt: All in vivo studies conducted at the Swiss Tropical and Public Health Institute (TPH) adhered to local and national regulations of laboratory animal welfare in Switzerland (permission no. 1731). For in vivo efficacy, female (specific-pathogen-free) […] (NMRI) mice were obtained from Janvier, Le Genest-Saint-Isle, France. Only mice without visible signs of disease were used for the study. Standard laboratory conditions were adopted for husbandry. In vivo antimalarial activity was assessed using groups of five female NMRI mice (20 to 22 g) intravenously infected on day zero with 2 × 10^7 erythrocytes parasitized with P. berghei GFP ANKA malaria strain PbGFPCON (a donation from A. P. Waters and C. J. Janse, Leiden University) ([39]). Untreated control mice typically died between day six and day seven postinfection. Experimental compounds were formulated in 10% ethanol, 30% PEG 400, and 60% of 10% vitamin E TPGS and were administered orally in a volume of 10 ml/kg. Dose-response efficacy studies were conducted for each spiroindolone analog. Doses of 2.5, 5, 10, 30, and 100 mg/kg were administered to groups of 5 mice each as a single dose at 24 h postinfection. Parasitemia, expressed as parasitized red blood cells (pRBCs) of >100 RBCs, was determined 72 h postinfection using standard flow cytometry techniques ([39]).
Data analysis was done using nonlinear mixed-effect modeling (NONMEM version VI 2.0), which analyzed the PD data from multiple dose groups obtained simultaneously from different experiments. Within NONMEM, first-order conditional estimation (FOCE) was the method used ([40]). The log-transformed dose and level of parasitemia were used for analysis. For each compound, a dose-response model was built, and the ED90 (effective dose lowering 90% of parasitemia) values were determined using equation 1 ([41]), where P is the parasitemia measured at any given dose, Pmax is the maximum level of parasitemia, Pmin is the minimum level of parasitemia, EZ50 is the dose required to produce 50% of the maximal effect, s is the Hill slope describing the steepness of the curve, and x is the dose (in mg/kg). 1 P=Pmin +{[Pmax−Pmin]/[1+10^(logEZ50−log x)×s]}

[3] = Parallel artificial membrane permeability assay (PAMPA); assay type: in vitro ADME; details: % fraction absorbed
Excerpt: as §1

[4] = tested on: P. berghei GFP ANKA PbGFPCON; assay: In vitro (ex vivo) P. berghei maturation assay; assay type: cell-based, Plasmodium berghei; details: 16 h + 8 h incubation; read-out: IC50 (mean ± SD) for P. berghei GFP ANKA PbGFPCON (n = 3)
Protocol: For the in vitro (ex vivo) P. berghei maturation assays ([38]), heparinized blood from infected mice (P. berghei GFP ANKA malaria strain PbGFPCON, a donation from A. P. Waters and C. J. Janse, Leiden University, Leiden, the Netherlands) ([39]) was washed with 9 ml of hypoxanthine-free culture medium and diluted with hypoxanthine-free culture medium and red blood cells (RBCs) from uninfected mice to a hematocrit of 5% and a parasitemia of 0.3%. Serial compound dilutions were prepared in DMSO and distributed as described above. The infected erythrocytes (0.3% final parasitemia and 2.5% final hematocrit) were added into the wells. After the plates were incubated for 16 h, 0.25 μCi of [^3H]hypoxanthine was added per well, and the plates were incubated for an additional 8 h. The parasites were harvested, and the in vitro (ex vivo) P. berghei IC50, IC90, and IC99 values were determined as described above.

[5] = In vivo PK after single p.o. and i.v. dosing in CD-1 mice; set-up: species or system female CD-1 mice; details: CD-1 mice
Protocol: The Institutional Animal Care and Use Committee (IACUC) of the Novartis Institute for Tropical Diseases (NITD), registered with the Agri-Food and Veterinary authority (AVA), Government of Singapore, reviewed and approved all animal experimental protocols. […] The mice were allowed to acclimate before the initiation of the experiments. Feed and water were given ad libitum. […] The blood samples from the mice were collected at 0.02 (for i.v. only), 0.08, 0.25, 0.5, 1, 2, 4, 8, 16, and 24 h postdosing. The dose proportionality studies were conducted with KAE609. […] Additional samples were collected at 32 h and 48 h postdose for the 1- and 5-mg/kg dose groups and up to 72 h postdose for the 100-mg/kg dose group. Groups of three mice were used for each time point. Blood was centrifuged at 13,000 rpm for 7 min at 4°C, and plasma was harvested and stored at -20°C until analysis. […] After vortexing and centrifuging the mixture, the supernatant was removed and 5 μl of sample analyzed. Analyte quantitation was performed by high-performance liquid chromatography coupled with tandem mass spectrometry (LC-MS/MS). […] Instrument control and data acquisition were performed using the Applied Biosystems software Analyst 1.4.2. […] Multiple-reaction monitoring (MRM) was combined with optimized MS parameters to maximize detection specificity and sensitivity. The most intense MRM transitions [338.3/295.1 for (+)-1, 370.1/327.0 for (+)-2, 370.0/326.9 for (+)-3, 354.1/310.8 for (+)-4, 354.1/311.2 for (+)-5, 372.1/329.1 for (+)-6, 388.0/331.8 for (+)-7, 372.1/316.1 for (-)-6, and 388/332 for (-)-7] were used for quantitation. Most compounds were analyzed using electrospray ionization in the negative mode, except (+)-1, which was analyzed using positive mode. The recovery of the compounds from plasma was good and consistent across the concentration range studied. The lower limits of quantification for different compounds ranged from 1.3 to 70 ng/ml in plasma. A calibration curve was freshly prepared and analyzed with every set of study samples. Intraday variability was established with triplicate quality control samples at three concentration levels. The results were accepted if relative standard deviation was <15%. The mean values of the compound concentrations in plasma were obtained from three animals at each time point and plotted against time to generate concentration-time profiles. […] The oral bioavailability (F) was calculated as the ratio between the area under the concentration-time curve from 0 to infinity (AUC0-∞) following oral administration and the AUC0-∞ following intravenous administration corrected for dose (F = […].).

Caco-2 cells = assay: Caco-2 permeability; assay type: in vitro ADME; details: apical to basolateral
Excerpt: as §1

P. falciparum NF54 = assay: In vitro [3H]hypoxanthine incorporation assay, P. falciparum NF54; assay type: cell-based, Plasmodium falciparum; details: 16 h + 8 h incubation; read-out: IC50 (mean ± SD) for P. falciparum NF54 (n = 3)
Protocol: Human erythrocytes served as the host cells. In vitro antimalarial activity was measured using the [^3H]hypoxanthine incorporation assay ([36]) with strain NF54 of P. falciparum (obtained from Hoffmann-LaRoche Ltd.). The compounds were dissolved in dimethyl sulfoxide (DMSO) at a concentration of 10 mM, diluted in hypoxanthine-free culture medium, and titrated in duplicate over a 64-fold range in 96-well plates. […] The parasites were harvested onto glass fiber filters, and radioactivity was measured using a BetaPlate liquid scintillation counter (Wallac, Zurich, Switzerland). All assays were repeated at least three times. The results were recorded and expressed as a percentage of the untreated controls. […] In addition, for the PK-PD analysis of KAE609, an IC99 value was determined by transforming the data from a scintillation counter (Anscombe transformation) to account for Poissonian measurement error. […] Each of the three replicates was performed on a distinct 96-well plate. This has been accounted for in the fitting procedure by means of a Bayesian hierarchical model. The software used for parameter inference was Stan ([37]).

[6] = Intrinsic clearance in mouse liver microsomes; assay type: in vitro ADME; details: per mg protein
Excerpt: as §1

[7] = sigmoid dose-response model, single oral doses 24 h postinfection, parasitemia 72 h postinfection

C[C@H]1Cc2c([nH]c3ccccc23)[C@@]2(N1)C(=O)Nc1ccc(Cl)cc12 [(+)-1]
Mouse PPB [1]: 98.4%
Hill slope ([2]; dose vs parasitemia model): −3.1
Pmax (maximum parasitemia) [2, 7]: 33.11
Pmin (minimum parasitemia) [2, 7]: 0.03
ED90 (effective dose causing a 90% reduction in parasitemia) ([2]; single oral dose 24 h postinfection, parasitemia 72 h postinfection): 15.3 mg/kg
PAMPA %FA [3]: 97%
IC50 [4]: 242 ± 124 nM
CL ([5]; i.v. 5 mg/kg): 49.7 mL/min/kg
Vss ([5]; i.v. 5 mg/kg): 0.9 L/kg
t1/2 (i.v.) ([5]; i.v. 5 mg/kg): 24 min
F (oral bioavailability) ([5]; oral 25 mg/kg vs i.v. 5 mg/kg): 13%
AUC0–24 ([5]; single oral dose 25 mg/kg): 1300 ng·h/mL
Tmax ([5]; single oral dose 25 mg/kg): 15 min
t1/2 (oral) ([5]; single oral dose 25 mg/kg): 42 min
Cmax ([5]; single oral dose 25 mg/kg, plasma): 1200 ng/mL
Caco-2 Papp (A-B) (Caco-2 cells): 7.19 10-6 cm/sec
IC50 (P. falciparum NF54): 13 ± 2.2 nM
Hepatic CLint in mouse liver microsomes [6]: 770 µL/min/mg
